The text below walks through data of patent US20200157086A1, “BENZAMIDE COMPOUNDS AND THEIR USE AS HERBICIDES” (BASF SE, priority 2017, published 2020).

SMILES strings stand for the structures.

What all share (experiment): post-emergence greenhouse test of herbicidal activity
Assay type in all cases: in vivo
Common to all, as to conditions: application rate 250 g/ha, 100 = complete destruction, 0 = no damage

Assay [1] deals with ECHCG (Echinocloa crus-galli). The source says:
(§1) The seeds of the test plants were sown separately for each species. For the post-emergence treatment, the test plants were first grown to a height of 3 to 15 cm, depending on the plant habit, and only then treated with the active ingredients which had been suspended or emulsified in water. For this purpose, the test plants were either sown directly and grown in the same containers, or they were first grown separately as seedlings and transplanted into the test containers a few days prior to treatment. Depending on the species, the plants were kept at 10-25° C. or 20-25° C., respectively. The test period extended over 2 to 4 weeks. During this time, the plants were tended, and their response to the individual treatments was evaluated. Evaluation was carried out using a scale from 0 to 100. 100 means no emergence of the plants, or complete destruction of at least the aerial moieties, and 0 means no damage, or normal course of growth. A good herbicidal activity is given at values of at least 70 and a very good herbicidal activity is given at values of at least 85. At an application rate of 250 g/ha the following compounds were tested in post-emergence tests against: […]

Assay [2] concerns AMARE (Amaranthus retroflexus).
Description: as §1

For assay [3], the system named is CHEAL (Chenopodium album).
Description: as §1

The test system of assay [4] is ALOMY (Alopecurus myosuroiedes).
Description: as §1

`CCN(C)C(=O)Nc1c(Cl)ccc(C(=O)Nc2nnnn2C)c1C` [compound 3, 4-chloro-3-[[ethyl(methyl)carbamoyl]amino]-2-methyl-N-(1-methyltetrazol-5-yl)benzamide]: in assay [1], the “herbicidal activity against ECHCG, scale from 0 to 100” value was 100. Besides, the “herbicidal activity against AMARE, scale from 0 to 100” value in assay [2] is on record as 100. The “herbicidal activity against CHEAL, scale from 0 to 100” value in assay [3] is on record as 100. Besides, in assay [4], the “herbicidal activity against ALOMY, scale from 0 to 100” value was determined as 98.
